Test results published in patent US10702527B2, “Combination therapy of transcription inhibitors and kinase inhibitors” (Dana-Farber Cancer Institute, Inc., priority 2015, dated 2020).
Entries after “also recorded” stand apart in the source; their conditions may differ.

How the values were obtained:
RT112 cells = experiment: Resistance emergence in RT112 cells under BGJ398 treatment (FIG. 1); format: cell-based, human
Description: One mechanism of resistance may be through the upregulation of NRG1 due to signaling via ERBB2/ERBB3 and is rapid (a matter of days) and reversible (Wang et al., Oncogene, 2015, 34(17):2167-77). The resistance may also be associated with EMT.

[1] = tested on: RT112 bladder carcinoma cells (FGFR3-dependent); experiment: Colony formation assay in RT112 cells; format: cell-based, human; conditions: for colony formation: 4 weeks, crystal violet staining, relative to control; for colony formation, transcription inhibitor alone or in combination with BGJ398: one week, 24-well plate (FIG. 35)
Description: Media (and drug) were replaced weekly.

[2] = tested on: H3K27Ac enhancer signal in RT112 cells; experiment: H3K27Ac ChIP-Seq in RT112 cells; format: cell-based, human; conditions: seven days of treatment, vs DMSO
Experimental: RT112 and PC9 cells treated for seven days with vehicle, 1 μM BGJ398 and erlotinib (respectively), 100 nM THZ1, or BGJ398/erlotinib in combination with THZ1. H3K27Ac ChIP-Seq was performed using Abcam antibody (cat # AB4729, lot # GR183922-1) as previously described,^8 with minor modifications (cells were crosslinked for 20 min, Dynal magnetic beads (Sigma) were bound with 10 μg of the indicated antibody).
Illumina sequencing libraries were generated and data was processed as described elsewhere.^50 In brief, libraries were generated for ChIP samples following the Illumina TruSeq™ DNA Sample Preparation v2 kit protocol with minor changes. All ChIP-Seq data sets were aligned using bowtie 1.0.1 to build […] of the human genome with -p 4—best -k 2 -m 2—sam -1 40. Wiggle files for gene tracks were created using Macs 1.4.2 with options -w -S -space=50 to count reads in 50 bp bins.
Regions enriched in H3K27Ac were identified using SICER^51 with corresponding input DNA control, and parameters -t 1 (max 1 read per position), -w 200 (window size 200), -i 150 (fragment size), -g 200 (gap size 200; 1 window), -t 0.74 (interrogable genome fraction), -e 200 (e-value), -p 1e-9 (significance p value cutoff). […]
Density of H3K27Ac ChIP-Seq signal (FIG. 51F) was calculated using bamToGFF (github.com/BradnerLab/pipeline). […]

[3] = tested on: gene expression in RT112 cells; experiment: RNA-Seq gene expression in RT112 cells; format: cell-based, human; conditions: for gene expression (transcriptional programs) by RNAseq: BGJ398 1 μM, THZ1 100 nM, one or seven days
Experimental: (§3) RNA was isolated from untreated RT112 cells and RT112 cells treated with 1 μM BGJ398, 100 nM THZ1, or combination treatment with THZ1 plus BGJ398, and similarly, untreated PC9 cells and PC9 cells treated with 1 μM erlotinib, 100 nM THZ1, or THZ1 plus erlotinib. Both cell lines were harvested at two time-points: following one day or seven days of treatment. Cell number was determined and total RNA was isolated using the RNeasy micro kit (Qiagen). Ambion® ERCC RNA Spike-In Mix (Life technology) was added to total RNA. cDNA libraries were prepared using the NEBNext® Ultra™ RNA Library Prep Kit for Illumina (New England Biolabs) according to the manufacturer's instructions. Library integrity was assessed on an Agilent 2100 Bioanalyzer (Agilent). Sequencing was performed on the Hiseq 2000 platform (Illumina) to a minimum depth of 30 million reads per sample.
(§4) QC-passed reads were aligned to the human reference genome (hg19) using PRADA.^46 Transcript per million (TPM) values were determined using RSEM.^47 TPM values were normalized with the voom transformation.^48 Expression changes for each gene in treated cells compared to untreated controls was determined using the limma package^49 as log 2-transformed fold change and a multiple-testing adjusted p-value. Heatmap visualization was performed using R. Log 2-transformed fold changes were not scaled and were colored on a blue-red scale.
(§5) Differentially expressed genes (defined as log 2-fold change value greater than 1.5 or less than −1.5, and p-value less than 0.01) were input into Ingenuity Pathway Analysis (www.ingenuity.com), to identify a) enriched pathways, 2) upstream regulators, andd 3) downstream effectors. […] We considered an activation z-score of greater than [2] to be activated, and less than [−2] to be inhibited. Gene ontology term (GO-term) enrichment analysis was performed using the Database for Annotation, Visualization and Integrated Discovery (DAVID) v6.7 (david.abcc.ncifcrf.gov/).

[4] = tested on: signaling pathways in RT112 cells; experiment: Western blot / immunoblot of signaling pathways in RT112 cells; format: cell-based, human; conditions: 24 hours
Experimental: (§1) Cells were lysed in RIPA buffer (Roche) containing protease inhibitors (Roche) and Phosphatase Inhibitor Cocktails I and II (CalBioChem). Protein concentrations were determined using a Bradford assay (Bio-Rad). Proteins were separated by SDS gel electrophoresis using NuPAGE 4-12% Bis-Tris gels (Life Technologies) in MOPS buffer. Resolved protein was transferred to nitrocellulose membranes, blocked in 10% milk and probed with primary antibodies recognizing EGFR (2232S), p-EGFR (2234S), FGFR3 (4574S), p-FGFR (3471S), HER2/ERBB2 (2165), p-ERBB2 (2243S), STAT1 (9172), p-STAT1 (9167), STAT3 (4904S), p-STAT3 (9145S), AKT (9272S), p-AKT (4060P), ERK (4695S), p-ERK (4370S), FRA1 (5281S), CDK12 (11973) (all from Cell Signaling Technology), CDK7 (sc-723, Santa Cruz), actin (A5441, Sigma-Aldrich) and vinculin (V9131, Sigma-Aldrich) in 5% milk or 3% bovine serum albumin as recommended by the manufacturer. After incubation with the appropriate secondary antibody (Pierce anti-mouse IgG/IgM (31444, Thermo Scientific) and anti-rabbit IgG (31460, Thermo Scientific)), blots were imaged on film.
Western blots were used to characterize the signaling pathways in selected cell lines. […] These doses were also used in the colony formation assays and the RNAseq and ChIPseq experiments. […] However, it could be blocking the activation of downstream STAT3 targets. […] FGFR is known to be a bypass mechanism in PC9, but this was not seen with THZ1 treatment or with the combination treatment. […] This is unexpected, given that THZ1 should block CDK7-mediated RNAPII phosphorylation. This may be due to the dose or the time point assayed.

[5] = tested on: signaling pathways in A549 cells; experiment: Western blot / immunoblot of signaling pathways in A549 cells; format: cell-based; conditions: 24 hours
Experimental: as §1
(§2) These two lines were both shown in Sharma et al. (Cell, 2010, 141(1):69-80) to employ the STAT3 feedback loop. p-ERK was decreased in the combination treatment arm. […] Therefore, there are some generalizable findings across the four lines.

[6] = tested on: signaling pathways in PC9 cells; experiment: Western blot / immunoblot of signaling pathways in PC9 cells; format: cell-based; conditions: 24 hours, erlotinib 1 μM, THZ1 100 nM
Experimental: as §1
Western blots were used to characterize the signaling pathways in selected cell lines. The assays were performed at 24 hours under the following conditions: untreated, treated with 1 μM erlotinib, treated with 100 nM THZ1, or treated with a combination of erlotinib and THZ1, in PC9 and RT112 cells. These doses were also used in the colony formation assays and the RNAseq and ChIPseq experiments. […] However, it could be blocking the activation of downstream STAT3 targets. […] FGFR is known to be a bypass mechanism in PC9, but this was not seen with THZ1 treatment or with the combination treatment. […] This is unexpected, given that THZ1 should block CDK7-mediated RNAPII phosphorylation. This may be due to the dose or the time point assayed.

[7] = tested on: signaling pathways in H23 cells; experiment: Western blot / immunoblot of signaling pathways in H23 cells; format: cell-based; conditions: 24 hours
Experimental: as §1, §2

IL-6 = IL-6 in PC9 cell culture supernatants (Luminex cytokine assay, ELISA); format: cell-based; conditions: PC9 cells; erlotinib 1 μM, THZ1 100 nM; 24 and 72 hours
Experimental: A Luminex Multiplex Custom Cytokine assay was used to assay cytokines in RT112 and PC9 cell culture supernatants treated with vehicle, 1 μM BGJ398 or erlotinib respectively, 100 nM THZ1, or THZ1 in combination with BGJ398 or erlotinib, at 24 and 72 hours. Cytokines assayed for were: CCL2/MCP-1, CCL5/RANTES, CXLC5, IL-1 alpha and beta, IL-2, IL-4, IL-5, IL-6, IL-8, IL-10, IL-17a, GM-CSF, TNF-alpha, VEGF, INF-gamma. IL-6 was also assayed in cell culture supernatants using the Quantikine IL-6 ELISA kit (D6050, R&D Systems) as per the manufacturer's protocol.

[8] = tested on: gene expression in PC9 cells; experiment: RNA-Seq gene expression in PC9 cells; conditions: erlotinib 1 μM, THZ1 100 nM, one or seven days
Experimental: as §3, §4, §5

[9] = tested on: EGFR-T790M-L858R; p53-R172H lung tumors; format: in vivo; conditions: TLP mice
Description: Mice (both male and female) bred to contain conditional EGFR-T790M-L858R lox-stop-lox (LSL) allele and the p53-dominant negative R172H LSL allele to a final genotype of EGFR-T790M-L858R^LSL/−; p53-R172H^LSL/− maintained on a mixed background, were induced at 6 weeks of age with Adenovirus-Cre recombinase by intranasal administration^45 to allow for mediated recombination of lox-stop-lox modified mutant-EGFR and p53 alleles. […] Mice were imaged using a 7 Tesla BioSpec (Bruker Biospin) optimized for image requisition of pulmonary parenchyma and vessels in mice. Animals were anesthetized with 2% isoflurane IsoFlo; Abbott) in 100% oxygen via a nose cone. Respiratory and cardiac gating was applied to minimize motion artifacts during imaging. 24 slices (1 mm) were collected. Tumor volume per animal was quantified manually, based on a minimum of eight consecutive axial image sequences, using the 3D Slicer. […] Investigators were not blinded to group allocation. Mice were imaged biweekly by MRI until end-stage disease to determine tumor volume. Mice weights and signs of toxicity were monitored daily during the course of treatment. End-stage disease was reached when animals acquired clinical symptoms secondary to their lung tumors, in accordance with Dana Farber Cancer Institute Animal Care and Use Committee regulations.

[10] = tested on: A549 cells (KRAS-mutant NSCLC); conditions: 4 weeks, crystal violet staining
Experimental: 100,000 cells were seeded in 6-well plates, allowed to adhere overnight, and then incubated with media containing vehicle or drug as indicated for 4 weeks. Media (and drug) were replaced weekly. At 4 weeks plates were, fixed with 1% paraformaldehyde, and then stained with 0.1% crystal violet as previously described (medicine.yale.edu/lab/kim/resources/protocols/cell/crystal- violet_stain.aspx) to assess colony formation. Results were quantified using an ImageJ Colony Area PlugIn.^44

CCN1CCN(c2ccc(Nc3cc(N(C)C(=O)Nc4c(Cl)c(OC)cc(OC)c4Cl)ncn3)cc2)CC1 [BGJ398]
resistance emergence (RT112 cells): led to resistance emergence
colony formation [1]: comparable to control
H3K27Ac ChIP-Seq signal at enhancers [2]: significant increase in H3K27Ac signal
gene expression (transcriptional programs) by RNAseq [3]: transcriptionally distinct from the parental population; also recorded: up-regulated the expression of genes involved in pro-survival programs
gene expression of the top 200 up-regulated genes with BGJ398 treatment ([3]; log2-normalized FPKM, two-tailed t-test): significant increase in gene expression

C[C@H](CCC(=O)O)[C@H]1CC[C@H]2[C@@H]3CC[C@@H]4C[C@H](O)CC[C@]4(C)[C@H]3C[C@H](O)[C@]12C [DCA]
colony formation, transcription inhibitor alone or in combination with BGJ398 [1]: modest results, even in combination

C=CC(=O)Nc1cccc(Nc2cc(N3CCCCC3CCO)nc3c(CC)cnn23)c1 (stereo not drawn) [E9]
colony formation, transcription inhibitor alone or in combination with BGJ398 [1]: works as well as THZ1

CN(C)C/C=C/C(=O)Nc1ccc(C(=O)Nc2cccc(Nc3ncc(Cl)c(-c4c[nH]c5ccccc45)n3)c2)cc1 [THZ1]
ERBB2 activation [4]: blocked ERBB2 activation
RNAPII phosphorylation [4]: increase in RNAPII phosphorylation
FRA1 protein levels ([4]; BGJ398 1 μM, THZ1 100 nM): nor did it restore FRA1 levels
STAT1 phosphorylation ([4]; BGJ398 1 μM, THZ1 100 nM): blocked STAT1 phosphorylation
p-STAT3 (STAT3 phosphorylation/activation) ([4]; BGJ398 1 μM, THZ1 100 nM, alone or combined): does not inhibit the feedback activation of STAT3; also recorded: did not affect the phosphorylation status of STAT3; also recorded: not blocking the activation of p-STAT3
colony formation [1]: comparable to control
RNAPII phosphorylation [5]: again increased
FRA1 protein levels [6]: nor did it restore FRA1 levels
RNAPII phosphorylation [6]: increase in RNAPII phosphorylation
STAT1 phosphorylation [6]: blocked STAT1 phosphorylation
FGFR activation ([6]; alone or combined): not seen; also recorded: blocked
p-STAT3 (STAT3 phosphorylation/activation) ([6]; alone or combined): does not inhibit the feedback activation of STAT3; also recorded: not blocking the activation of p-STAT3; also recorded: did not affect the phosphorylation status of STAT3
RNAPII phosphorylation [7]: again increased
IL-6 levels in cell culture supernatants (IL-6): suppressed the increase in IL-6 levels
gene expression (transcriptional programs) by RNAseq [3]: attenuation of these programs
gene expression (transcriptional programs) by RNAseq [8]: attenuation of these programs

C=CC(=O)Nc1cccc(Oc2nc(Nc3ccc(N4CCN(C)CC4)cc3OC)ncc2Cl)c1 [WZ4002]
time to end-stage disease [9]: end-stage disease by five weeks
tumor response by MRI at two weeks ([9]; WZ4002 50 mg/kg QD oral gavage): initial response
tumor response by MRI at four weeks ([9]; WZ4002 50 mg/kg QD oral gavage, THZ1 10 mg/kg BID i.p.): rapidly developed resistance and rebounded

C[C@@H](Oc1cc(-c2cnn(C3CCNCC3)c2)cnc1N)c1c(Cl)ccc(F)c1Cl [crizotinib]
colony formation [10]: ineffective
